Which flash point does the source give for `CC[Si](CC)(CC)CC` [Tetraethylsilane] here?
The flash point was 32.00 °C.

remark: another data set of the same source

For `CCO[Si](CCCCN)(OCC)OCC` [4-AMINOBUTYLTRIETHOXYSILANE], which flash point is on record?
Its flash point is 109.00 °C.

For `CO[Si](C)(CCCNCCN)OC` [N-(2-AMINOETHYL)-3-AMINOPROPYLMETHYLDIMETHOXYSILANE], which flash point is on record?
Its flash point is 90.00 °C.

With `CC(=O)OCCC[Si](C)(Cl)Cl` [3-ACETOXYPROPYLMETHYLDICHLOROSILANE] as the molecule, how does the flash point read?
Its flash point is 85.00 °C.

For `C=CC[Si](O[Si](C)(C)C)(O[Si](C)(C)C)O[Si](C)(C)C` [ALLYLTRIS(TRIMETHYLSILOXY)SILANE], which flash point is on record?
Its flash point is 67.00 °C.

With `C=CC(=O)O[Si](C)(C)C` [ACRYLOXYTRIMETHYLSILANE] as the molecule, how does the flash point read?
The flash point was 26.00 °C.

For `CCO[Si](CCCCCCS(=O)(=O)N=[N+]=[N-])(OCC)OCC` [6-AZIDOSULFONYLHEXYLTRIETHOXYSILANE], which flash point is on record?
Its flash point is 114.00 °C.

Which flash point does the source give for `CC(=O)OCC[Si](Cl)(Cl)Cl` [ACETOXYETHYLTRICHLOROSILANE] here?
Its flash point is 82.00 °C.

For `CO[Si](CCCOC(C)=O)(OC)OC` [3-ACETOXYPROPYLTRIMETHOXYSILANE], which flash point is on record?
Its flash point is 93.00 °C.

For `CCO[Si](C)(C)CCCN` [3-AMINOPROPYLDIMETHYLETHOXYSILANE], which flash point is on record?
The flash point was 73.00 °C.

With `CO[Si](OC)(OC)c1ccc(N)cc1` [p-AMINOPHENYLTRIMETHOXYSILANE] as the molecule, how does the flash point read?
The flash point was 180.00 °C.

For `C[Si](C)(C)CN` [AMINOMETHYLTRIMETHYLSILANE], which flash point is on record?
Its flash point is 9.00 °C.

For `CC(=O)OC[Si](C)(C)C` [ACETOXYMETHYLTRIMETHYLSILANE], which flash point is on record?
The flash point was 20.00 °C.

Which flash point does the source give for `C=CC[Si](C)(C)N(C(C)C)C(C)C` [ALLYLDIMETHYL(DIISOPROPYLAMINO)SILANE] here?
Its flash point is 62.00 °C.

Which flash point does the source give for `C[SiH](C)Cc1ccccc1` [BENZYLDIMETHYLSILANE] here?
The flash point was 65.00 °C.

Which flash point does the source give for `C[Si](C)(C)CNCc1ccccc1` [N-BENZYLAMINOMETHYLTRIMETHYLSILANE] here?
Its flash point is 116.00 °C.

For `C=CC[SiH](C)C` [ALLYLDIMETHYLSILANE], which flash point is on record?
The flash point was -20.00 °C.

remark: another data set of the same source

With `[CH3][Sn]([CH3])([CH3])[Cl]` [TRIMETHYLCHLOROTIN] as the molecule, how does the flash point read?
Its flash point is 97.00 °C.

Which flash point does the source give for `C=C[CH2][Sn]([CH2]C=C)([CH2]CCC)[CH2]CCC` [DIALLYLDI-n-BUTYLTIN] here?
The flash point was 101.00 °C.

With `CCC[CH2][Sn]([CH2]CCC)([CH2]CCC)[O]CC` [TRI-n-BUTYLETHOXYTIN] as the molecule, how does the flash point read?
Its flash point is 104.00 °C.

With `CCC[CH2][Sn]([CH2]CCC)([CH2]CCC)[CH2]CCC` [TETRA-n-BUTYLTIN] as the molecule, how does the flash point read?
Its flash point is 107.00 °C.

With `CCC[CH2][Sn]([CH2]CCC)([CH2]CCC)[c]1ccccc1` [PHENYLTRI-n-BUTYLTIN] as the molecule, how does the flash point read?
The flash point was 107.00 °C.

Which flash point does the source give for `C#[C][Sn]([CH2]CCC)([CH2]CCC)[CH2]CCC` [ETHYNYLTRI-n-BUTYLTIN] here?
The flash point was 73.00 °C.

For `CCC[CH2][Sn]([CH2]CCC)([O]C(C)=O)[O]C(C)=O` [DI-n-BUTYLDIACETOXYTIN], which flash point is on record?
The flash point was 143.00 °C.

With `CCCC[O][Sn]([CH2]CCC)([CH2]CCC)[O]CCCC` [DI-n-BUTYLDI-n-BUTOXYTIN] as the molecule, how does the flash point read?
The flash point was 116.00 °C.

Which flash point does the source give for `C[C](C)(C)[Sn]([Cl])([Cl])[C](C)(C)C` [DI-t-BUTYLDICHLOROTIN] here?
The flash point was 113.00 °C.

For `CCCCCCCCCCC[CH2][Sn]([CH2]CCCCCCC)([CH2]CCCCCCC)[CH2]CCCCCCCCCCC` [DIOCTYLDILAURYLTIN], which flash point is on record?
The flash point was 198.00 °C.

For `C[N](C)[Sn]([CH3])([CH3])[CH3]` [DIMETHYLAMINOTRIMETHYLTIN], which flash point is on record?
The flash point was 1.00 °C.

For `CCC[CH2][Sn]([I])([CH2]CCC)[CH2]CCC` [TRI-n-BUTYLIODOTIN], which flash point is on record?
The flash point was 113.00 °C.

For `CCC[CH2][Sn]([CH2]CCC)([O]C)[O]C` [DI-n-BUTYLDIMETHOXYTIN], which flash point is on record?
The flash point was 110.00 °C.

For `[CH3][Sn]([CH3])([CH3])[CH3]` [TETRAMETHYLTIN], which flash point is on record?
Its flash point is -12.00 °C.

For `CCCCCCC[CH2][Sn]([CH2]CCCCCCC)([CH2]CCCCCCC)[CH2]CCCCCCC` [TETRA-n-OCTYLTIN], which flash point is on record?
Its flash point is 94.00 °C.

With `c1cc[c]([Sn]([c]2ccccc2)([c]2ccccc2)[c]2ccccc2)cc1` [TETRAPHENYLTIN] as the molecule, how does the flash point read?
The flash point was 231.00 °C.

For `CCC[CH2][Sn]([CH2]CCC)([CH2]CCC)[C](C)(C)C` [t-BUTYLTRI n-BUTYLTIN], which flash point is on record?
Its flash point is 102.00 °C.

With `C1CC[CH]([SnH]([CH]2CCCCC2)[CH]2CCCCC2)CC1` [TRICYCLOHEXYLTIN HYDRIDE] as the molecule, how does the flash point read?
Its flash point is 105.00 °C.

Which flash point does the source give for `CCC[CH2][SnH]([CH2]CCC)[CH2]CCC` [TRI-n-BUTYLTIN HYDRIDE] here?
Its flash point is 40.00 °C.

Which flash point does the source give for `CCC[CH2][Sn]([Cl])([CH2]CCC)[CH2]CCC` [TRI-n-BUTYLCHLOROTIN] here?
The flash point was 120.00 °C.

remark: another data set of the same source

For `C[Si](C)(C)N=C=N[Si](C)(C)C` [Bis(trimethylsilyl)carbodiimide], which flash point is on record?
The flash point was 42 °C.

For `C[Si](C)(C)OB(O[Si](C)(C)C)O[Si](C)(C)C` [Tris(trimethylsiloxy)boron], which flash point is on record?
Its flash point is 42 °C.

For `CO[Si](CCCNCCN)(OC)OC` [Aminoethylaminopropyltrimethoxysilane], which flash point is on record?
The flash point was 96 °C.

Which flash point does the source give for `CN(C(=O)C(F)(F)F)[Si](C)(C)C` [N-Methyl-N-trimethylsilyltrifluoroacetamide] here?
Its flash point is 25 °C.

With `CC[Si](CC)(CC)CC` [Tetraethylsilane] as the molecule, how does the flash point read?
The flash point was 26 °C.

With `C=C[Si](C)(C)O[Si](C)(C)C` [Vinylpentamethyldisiloxane] as the molecule, how does the flash point read?
The flash point was 12 °C.

remark: another data set of the same source

Which flash point does the source give for `CC(C)C[O-].CC(C)C[O-].CC(C)C[O-].CC(C)C[O-].[Ti+4]` [TITANIUM ISOBUTOXIDE] here?
The flash point was 77.00 °C.

For `C[O-].C[O-].C[O-].C[O-].[Ti+4]` [TITANIUM METHOXIDE], which flash point is on record?
Its flash point is 48.00 °C.

For `CC(C)[O-].CC(C)[O-].CC(C)[O-].[B+3]` [BORON ISOPROPOXIDE], which flash point is on record?
Its flash point is 28.00 °C.

Which flash point does the source give for `CCCCC(CC)C(=O)[O-].CCCCC(CC)C(=O)[O-].[Zn+2]` (stereo not given) [ZINC 2-ETHYLHEXANOATE] here?
Its flash point is 127.00 °C.

Which flash point does the source give for `[CH3][Cd][CH3]` [DIMETHYLCADMIUM] here?
The flash point was -18.00 °C.

For `C[Si](C)(C)OB(O[Si](C)(C)C)O[Si](C)(C)C` [TRIS(TRIMETHYLSILOXY)BORON], which flash point is on record?
The flash point was 42.00 °C.

For `C[N-]C.C[N-]C.C[N-]C.C[N-]C.[Ti+4]` [TITANIUM TETRAKIS(DIMETHYLAMIDE)], which flash point is on record?
Its flash point is 8.00 °C.

For `C[O-].C[O-].C[O-].[B+3]` [BORON METHOXIDE], which flash point is on record?
Its flash point is -1.00 °C.

Which flash point does the source give for `CC(C)(C)[O-].CC(C)(C)[O-].CC(C)(C)[O-].CC(C)(C)[O-].[Zr+4]` [ZIRCONIUM t-BUTOXIDE] here?
The flash point was 85.00 °C.

For `C=C[c-]1cccc1.[Fe+2].c1cc[cH-]c1` [VINYLFERROCENE], which flash point is on record?
Its flash point is 62.00 °C.

For `CC(C)(C)CCCCCC(=O)[O-].CC(C)(C)CCCCCC(=O)[O-].[Zn+2]` [ZINC NEODECANOATE], which flash point is on record?
Its flash point is 102.00 °C.

With `Cc1ccccc1[O-].Cc1ccccc1[O-].Cc1ccccc1[O-].Cc1ccccc1[O-].[Ti+4]` [TITANIUM METHYLPHENOXIDE] as the molecule, how does the flash point read?
The flash point was 66.00 °C.

For `CC[N-]C.CC[N-]C.CC[N-]C.CC[N-]C.[Hf+4]` [HAFNIUM TETRAKIS(ETHYLMETHYLAMIDE)], which flash point is on record?
The flash point was 10.00 °C.

remark: another data set of the same source

With `C[CH](C)[Ge]([Cl])([CH](C)C)[CH](C)C` [TRIISOPROPYLCHLOROGERMANE] as the molecule, how does the flash point read?
The flash point was 66.00 °C.

For `C=C[CH2][Ge]([CH2]C)([CH2]C)[CH2]C` [ALLYLTRIETHYLGERMANE], which flash point is on record?
Its flash point is 48.00 °C.

Which flash point does the source give for `[CH3][Ge]([CH3])([CH3])[CH](Cl)Cl` [DICHLOROMETHYLTRIMETHYLGERMANE] here?
The flash point was 33.00 °C.

With `CCC[CH2][Ge]([CH2]CCC)([CH2]CCC)[CH2]CCC` [TETRA-n-BUTYLGERMANE] as the molecule, how does the flash point read?
Its flash point is 90.00 °C.

With `[CH3][Ge]([CH3])([CH3])[Cl]` [TRIMETHYLCHLOROGERMANE] as the molecule, how does the flash point read?
The flash point was 1.00 °C.

Which flash point does the source give for `C[CH2][Ge]([Cl])([CH2]C)[CH2]C` [TRIETHYLCHLOROGERMANE] here?
Its flash point is 38.00 °C.

For `C[CH2][GeH]([CH2]C)[CH2]C` [TRIETHYLGERMANE], which flash point is on record?
Its flash point is 5.00 °C.

Which flash point does the source give for `[Cl][GeH]([Cl])[Cl]` [TRICHLOROGERMANE] here?
The flash point was 12.00 °C.

For `C=C[CH2][Ge]([CH2]C=C)([CH2]C=C)[CH2]C=C` [TETRAALLYLGERMANE], which flash point is on record?
The flash point was 70.00 °C.

For `CC(C)[O][Ge]([O]C(C)C)([O]C(C)C)[O]C(C)C` [TETRAISOPROPOXYGERMANE], which flash point is on record?
Its flash point is 68.00 °C.

For `CC[O][Ge]([CH3])([O]CC)[O]CC` [METHYLTRIETHOXYGERMANE], which flash point is on record?
Its flash point is 40.00 °C.

Which flash point does the source give for `C[CH2][Ge]([Cl])([Cl])[CH2]C` [DIETHYLDICHLOROGERMANE] here?
The flash point was 52.00 °C.

Which flash point does the source give for `CC[O][Ge]([O]CC)([O]CC)[O]CC` [TETRAETHOXYGERMANE] here?
Its flash point is 62.00 °C.

Which flash point does the source give for `[CH3][Ge]([CH3])([CH3])[CH3]` [TETRAMETHYLGERMANE] here?
Its flash point is -19.00 °C.

With `C[N](C)[Ge]([CH3])([CH3])[CH3]` [DIMETHYLAMINOTRIMETHYLGERMANE] as the molecule, how does the flash point read?
The flash point was -10.00 °C.

Which flash point does the source give for `C=C[CH2][Ge]([Cl])([Cl])[Cl]` [ALLYLTRICHLOROGERMANE] here?
Its flash point is 55.00 °C.

For `CCC[CH2][GeH]([CH2]CCC)[CH2]CCC` [TRI-n-BUTYLGERMANE], which flash point is on record?
The flash point was 78.00 °C.

With `CCC[CH2][Ge]([Cl])([Cl])[Cl]` [n-BUTYLTRICHLOROGERMANE] as the molecule, how does the flash point read?
Its flash point is 82.00 °C.

With `CCC[CH2][Ge]([Cl])([CH2]CCC)[CH2]CCC` [TRI-n-BUTYLCHLOROGERMANE] as the molecule, how does the flash point read?
Its flash point is 94.00 °C.
